Among the data in US9388140B2, “Substituted benzimidazoles” (priority 2011, dated 2016) are IC50 values, retold here.

Each structure is given as a SMILES string.

The assay deals with human kinase Mps-1 (Homo sapiens (Human), UniProt P33981). The assay can be described thus: Mps-1 kinase assay (TR-FRET). Particulars: N-terminally GST-tagged human full length recombinant Mps-1; 10 μM ATP; 1 μM biotinylated peptide substrate; read-out: Mps1 IC50. The class given is biochemical. On the procedure: The human kinase Mps-1 phosphorylates a biotinylated substrate peptide. Detection of the phosphorylated product is achieved by time-resolved fluorescence resonance energy transfer (TR-FRET) from Europium-labelled anti-phospho-Serine/Threonine antibody as donor to streptavidin labelled with cross-linked allophycocyanin (SA-XLent) as acceptor. Compounds are tested for their inhibition of the kinase activity.
Chain of human kinase Mps-1 (P33981 whole entry): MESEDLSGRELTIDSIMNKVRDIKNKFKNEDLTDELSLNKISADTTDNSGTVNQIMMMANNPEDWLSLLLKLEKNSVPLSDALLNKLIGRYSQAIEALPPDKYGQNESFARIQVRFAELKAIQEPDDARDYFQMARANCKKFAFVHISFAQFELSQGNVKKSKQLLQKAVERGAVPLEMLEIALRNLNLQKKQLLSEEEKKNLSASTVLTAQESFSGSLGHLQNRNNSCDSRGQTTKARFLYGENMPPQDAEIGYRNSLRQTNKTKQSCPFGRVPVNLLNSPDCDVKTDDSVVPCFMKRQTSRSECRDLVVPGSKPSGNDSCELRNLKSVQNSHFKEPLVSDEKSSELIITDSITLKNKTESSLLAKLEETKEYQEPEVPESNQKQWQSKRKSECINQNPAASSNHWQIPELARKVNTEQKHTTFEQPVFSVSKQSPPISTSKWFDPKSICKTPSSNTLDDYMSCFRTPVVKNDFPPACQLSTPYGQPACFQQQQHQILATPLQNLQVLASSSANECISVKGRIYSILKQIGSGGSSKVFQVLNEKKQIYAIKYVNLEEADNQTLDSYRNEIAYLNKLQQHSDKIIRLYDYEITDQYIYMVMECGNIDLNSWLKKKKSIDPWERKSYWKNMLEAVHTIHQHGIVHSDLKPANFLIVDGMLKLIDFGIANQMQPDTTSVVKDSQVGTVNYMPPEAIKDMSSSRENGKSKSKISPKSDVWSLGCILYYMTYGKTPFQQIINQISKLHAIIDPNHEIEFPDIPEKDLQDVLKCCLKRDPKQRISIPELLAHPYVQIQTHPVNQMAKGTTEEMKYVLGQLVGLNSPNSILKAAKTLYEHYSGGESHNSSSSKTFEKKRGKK
N-terminally GST-tagged human full length recombinant Mps-1 kinase (purchased from Invitrogen, Karslruhe, Germany, cat. no PV4071) was used. As substrate for the kinase reaction a biotinylated peptide of the amino-acid sequence […] (C-terminus in amide form, purchased from Biosynthan GmbH, Berlin) was used.
The concentration of Mps-1 in the assay was adjusted to the activity of the enzyme lot and was chosen appropriate to have the assay in the linear range, typical enzyme concentrations were in the range of about 1 nM (final conc. in the 5 μl assay volume).
The resulting mixture was incubated 1 h at 22° C. to allow the binding of the phosphorylated peptide to the anti-phospho(Ser/Thr)-Europium-antibody. Subsequently the amount of phosphorylated substrate was evaluated by measurement of the resonance energy transfer from the Europium-labelled anti-phospho(Ser/Thr) antibody to the Streptavidin-XLent.
In the case of `COc1ccc(C(C)(O)c2cc(NCCC(F)(F)F)c3ncn(-c4ccc(C(=O)NC5CC5)c(C)c4)c3c2)cc1F` (racemic) [Example 103A, N-cyclopropyl-4-{6-[(1RS)-1-(3-fluoro-4-methoxyphenyl)-1-hydroxyethyl]-4-[(3,3,3-trifluoropropyl)amino]-1H-benzimidazol-1-yl}-2-methylbenzamide], the half-maximal inhibitory concentration (IC50) was determined as 2.7 nM.
For `COc1ccc(C(C)c2cc(NCCC(F)(F)F)c3ncn(-c4ccc(C(=O)NC5CC5)c(C)c4)c3c2)cc1F` (racemic) [Example 105, N-cyclopropyl-4-{6-[(1RS)-1-(3-fluoro-4-methoxyphenyl)ethyl]-4-[(3,3,3-trifluoropropyl)amino]-1H-benzimidazol-1-yl}-2-methylbenzamide] the value was 2.9 nM.
For `Cc1cc(-n2cnc3c(NCCC(F)(F)F)cc(-c4ccncc4)cc32)ccc1C(=O)NC1CC1` [Example 2, N-cyclopropyl-2-methyl-4-{6-(pyridin-4-yl)-4-[(3,3,3-trifluoropropyl)amino]-1H-benzimidazol-1-yl}benzamide] the value was 0.2 nM; for `Cc1ccc(F)cc1Nc1cc(NCCC(F)(F)F)c2ncn(-c3ccc(C(=O)NC4CC4)c(C)c3)c2c1` [Example 3, N-Cyclopropyl-4-{6-[(5-fluoro-2-methylphenyl)amino]-4-[(3,3,3-trifluoropropyl)amino]-1H-benzimidazol-1-yl}-2-methylbenzamide], 1.5 nM.
With `Cc1cc(-n2cnc3c(NCCC(F)(F)F)cc(Oc4cccc(F)c4)cc32)ccc1C(=O)NC1CC1` [Example 4, N-cyclopropyl-4-{6-(3-fluorophenoxy)-4-[(3,3,3-trifluoropropyl)amino]-1H-benzimidazol-1-yl}-2-methylbenzamide], the IC50 is 0.7 nM.
For `Cc1cc(-n2cnc3c(NCCC(F)(F)F)cc(Nc4cccc(F)c4F)cc32)ccc1C(=O)NC1CC1` [Example 5, N-cyclopropyl-4-{6-[(2,3-difluorophenyl)amino]-4-[(3,3,3-trifluoropropyl)amino]-1H-benzimidazol-1-yl}-2-methylbenzamide], the concentration for half-maximal inhibition (IC50) came out at 2.3 nM.
Next, `CC(C)CNc1cc(Br)cc2c1ncn2-c1ccc(C(=O)NC2CC2)cc1` [Example 6, 4-{6-bromo-4-[(2-methylpropyl)amino]-1H-benzimidazol-1-yl}-N-cyclopropylbenzamide]: 16.6 nM; `CC(C)CNc1cc(-c2ccc(F)cc2)cc2c1ncn2-c1ccc(C(=O)NC2CC2)cc1` [Example 7, N-cyclopropyl-4-{6-(4-fluorophenyl)-4-[(2-methylpropyl)amino]-1H-benzimidazol-1-yl}benzamide]: 1.9 nM.
For `Cc1cc(-n2cnc3c(NCC4CCOCC4)cc(Oc4cccc(F)c4)cc32)ccc1C(=O)NC1CC1` [Example 9, N-cyclopropyl-4-{6-(3-fluorophenoxy)-4-[(tetrahydro-2H-pyran-4-ylmethyl)amino]-1H-benzimidazol-1-yl}-2-methylbenzamide] the value was 0.4 nM; for `CNC(=O)c1ccc(-n2cnc3c(NCCC(F)(F)F)cc(Oc4cccc(F)c4)cc32)cc1C` [Example 10, 4-{6-(3-Fluorophenoxy)-4-[(3,3,3-trifluoropropyl)amino]-1H-benzimidazol-1-yl}-N,2-dimethylbenzamide], 4.7 nM.
`CCNC(=O)c1ccc(-n2cnc3c(NCCC(F)(F)F)cc(Oc4cccc(F)c4)cc32)cc1C` [Example 11, N-ethyl-4-{6-(3-fluorophenoxy)-4-[(3,3,3-trifluoropropyl)amino]-1H-benzimidazol-1-yl}-2-methylbenzamide]: the half-maximal inhibitory concentration (IC50) worked out at 6.6 nM.
Next, `Cc1cc(-n2cnc3c(NCCC(F)(F)F)cc(Oc4cccc(F)c4)cc32)ccc1C(=O)NC1(C)CC1` [Example 12, 4-{6-(3-Fluorophenoxy)-4-[(3,3,3-trifluoropropyl)amino]-1H-benzimidazol-1-yl}-2-methyl-N-(1-methylcyclopropyl)benzamide]: 15.3 nM; `Cc1cc(-n2cnc3c(NCCC(F)(F)F)cc(Oc4cccc(F)c4)cc32)ccc1C(=O)NC1(C#N)CC1` [Example 13, N-(1-cyanocyclopropyl)-4-{6-(3-fluorophenoxy)-4-[(3,3,3-trifluoropropyl)amino]-1H-benzimidazol-1-yl}-2-methylbenzamide]: 48.7 nM; `Cc1cc(-n2cnc3c(NCCC(F)(F)F)cc(Oc4cccc(F)c4F)cc32)ccc1C(=O)NC1CC1` [Example 14, N-cyclopropyl-4-{6-(2,3-difluorophenoxy)-4-[(3,3,3-trifluoropropyl)amino]-1H-benzimidazol-1-yl}-2-methylbenzamide]: 0.5 nM.
Next, `Cc1cc(F)cc(Oc2cc(NCC3CCOCC3)c3ncn(-c4ccc(C(=O)NC5CC5)c(C)c4)c3c2)c1` [Example 15, N-cyclopropyl-4-{6-(3-fluoro-5-methylphenoxy)-4-[(tetrahydro-2H-pyran-4-ylmethyl)amino]-1H-benzimidazol-1-yl}-2-methylbenzamide]: 0.6 nM; `Cc1ccc(F)cc1Oc1cc(NCC2CCOCC2)c2ncn(-c3ccc(C(=O)NC4CC4)c(C)c3)c2c1` [Example 16, N-cyclopropyl-4-{6-(5-fluoro-2-methylphenoxy)-4-[(tetrahydro-2H-pyran-4-ylmethyl)amino]-1H-benzimidazol-1-yl}-2-methylbenzamide]: 0.6 nM.
Next, `Cc1cc(-n2cnc3c(NCC4CCOCC4)cc(Oc4ccc(F)c(F)c4)cc32)ccc1C(=O)NC1CC1` [Example 17, N-cyclopropyl-4-{6-(3,4-difluorophenoxy)-4-[(tetrahydro-2H-pyran-4-ylmethyl)amino]-1H-benzimidazol-1-yl}-2-methylbenzamide]: 1.1 nM; `Cc1cc(-n2cnc3c(NCCC(F)(F)F)cc(Oc4ccc(Cl)cc4)cc32)ccc1C(=O)NC1CC1` [Example 18, 4-{6-(4-Chlorophenoxy)-4-[(3,3,3-trifluoropropyl)amino]-1H-benzimidazol-1-yl}-N-cyclopropyl-2-methylbenzamide]: 2.4 nM; `Cc1ccc(F)cc1Nc1cc(NCC2CCOCC2)c2ncn(-c3ccc(C(=O)NC4CC4)c(C)c3)c2c1` [Example 19, N-cyclopropyl-4-{6-[(5-fluoro-2-methylphenyl)amino]-4-[(tetrahydro-2H-pyran-4-ylmethyl)amino]-1H-benzimidazol-1-yl}-2-methylbenzamide]: 1.2 nM.
With `Cc1cc(-n2cnc3c(NCC4CCOCC4)cc(-c4ccccc4CO)cc32)ccc1C(=O)NC1CC1` [Example 20, N-cyclopropyl-4-{6-[2-(hydroxymethyl)phenyl]-4-[(tetrahydro-2H-pyran-4-ylmethyl)amino]-1H-benzimidazol-1-yl}-2-methylbenzamide], the IC50 was 1.5 nM.
On to `Cc1cc(-n2cnc3c(NCCC(F)(F)F)cc(-c4ccccc4CO)cc32)ccc1C(=O)NC1CC1` [Example 21, N-cyclopropyl-4-{6-[2-(hydroxymethyl)phenyl]-4-[(3,3,3-trifluoropropyl)amino]-1H-benzimidazol-1-yl}-2-methylbenzamide], for which the half-inhibitory concentration (IC50) came to 1.8 nM.
For the compound `Cc1cc(-n2cnc3c(NCC4CCOCC4)cc(Oc4ccc(Cl)c(F)c4)cc32)ccc1C(=O)NC1CC1` [Example 22, 4-{6-(4-Chloro-3-fluorophenoxy)-4-[(tetrahydro-2H-pyran-4-ylmethyl)amino]-1H-benzimidazol-1-yl}-N-cyclopropyl-2-methylbenzamide], the IC50 was 2.7 nM.
For `Cc1cc(-n2cnc3c(NCC4CCOCC4)cc(Oc4ccc(Cl)cc4)cc32)ccc1C(=O)NC1CC1` [Example 23, 4-{6-(4-Chlorophenoxy)-4-[(tetrahydro-2H-pyran-4-ylmethyl)amino]-1H-benzimidazol-1-yl}-N-cyclopropyl-2-methylbenzamide] the value was 2.2 nM; for `Cc1cc(-n2cnc3c(NCC4CCOCC4)cc(Oc4cccc(F)c4F)cc32)ccc1C(=O)NC1CC1` [Example 25, N-cyclopropyl-4-{6-(2,3-difluorophenoxy)-4-[(tetrahydro-2H-pyran-4-ylmethyl)amino]-1H-benzimidazol-1-yl}-2-methylbenzamide], 0.2 nM.
As to `Cc1cc(F)cc(Oc2cc(NCCC(F)(F)F)c3ncn(-c4ccc(C(=O)NC5CC5)c(C)c4)c3c2)c1` [Example 26, N-cyclopropyl-4-{6-(3-fluoro-5-methylphenoxy)-4-[(3,3,3-trifluoropropyl)amino]-1H-benzimidazol-1-yl}-2-methylbenzamide], the IC50 amounted to 1.8 nM.
For `Cc1cc(-n2cnc3c(NCCC(F)(F)F)cc(Oc4ccc(F)c(F)c4)cc32)ccc1C(=O)NC1CC1` [Example 27, N-cyclopropyl-4-{6-(3,4-difluorophenoxy)-4-[(3,3,3-trifluoropropyl)amino]-1H-benzimidazol-1-yl}-2-methylbenzamide] the value was 1.4 nM; for `Cc1cc(-n2cnc3c(NCCC(F)(F)F)cc(Oc4ccc(Cl)c(F)c4)cc32)ccc1C(=O)NC1CC1` [Example 28, 4-{6-(4-Chloro-3-fluorophenoxy)-4-[(3,3,3-trifluoropropyl)amino]-1H-benzimidazol-1-yl}-N-cyclopropyl-2-methylbenzamide], 3.1 nM; for `COc1ccc(Oc2cc(NCCC(F)(F)F)c3ncn(-c4ccc(C(=O)NC5CC5)c(C)c4)c3c2)c(F)c1` [Example 29, N-cyclopropyl-4-{6-(2-fluoro-4-methoxyphenoxy)-4-[(3,3,3-trifluoropropyl)amino]-1H-benzimidazol-1-yl}-2-methylbenzamide], 0.9 nM.
